Patent publication US20130059840A1, “SULFONAMIDO PYRROLIDINE COMPOUNDS WHICH INHIBIT BETA-SECRETASE ACTIVITY AND METHODS OF USE THEREOF” (CoMentis, Inc., priority 2009, published 2013)

Columns and labels:
[1] = biological target: T1, memapsin 2 (Cricetulus griseus, UniProt G3IAK4); assay: Cellular Aβ IC50 determination (Aβ40 sandwich ELISA); format: cell-based; conditions: Chinese hamster ovary cells over-expressing human APP695 (London and Swedish mutations), Aβ40, 24 h; read-out: M2 IC50
T1 construct: endogenous in cells; host or cells: Chinese hamster ovary cells over-expressing human APP695 (London + Swedish)
T1 sequence (G3IAK4 22-501): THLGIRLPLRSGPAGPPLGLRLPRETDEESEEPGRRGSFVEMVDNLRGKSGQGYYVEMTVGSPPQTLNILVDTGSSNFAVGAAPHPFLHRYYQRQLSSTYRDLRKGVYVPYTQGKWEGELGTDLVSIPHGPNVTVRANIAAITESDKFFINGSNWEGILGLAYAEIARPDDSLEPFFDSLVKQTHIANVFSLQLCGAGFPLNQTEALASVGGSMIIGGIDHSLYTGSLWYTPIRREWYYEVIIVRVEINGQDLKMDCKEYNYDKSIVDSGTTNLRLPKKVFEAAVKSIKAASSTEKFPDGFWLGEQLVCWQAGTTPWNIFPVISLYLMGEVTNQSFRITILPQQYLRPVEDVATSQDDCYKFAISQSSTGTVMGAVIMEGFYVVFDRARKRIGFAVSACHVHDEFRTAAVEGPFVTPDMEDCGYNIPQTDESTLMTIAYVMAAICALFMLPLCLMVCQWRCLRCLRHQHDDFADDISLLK
Procedure: The potency of compounds against memapsin 2 activity was determined in a cellular assay of Aβ production. […] Chinese hamster ovary cells that over-express human APP695 with the London and Swedish mutations were seeded in multi-well plates at 10% confluency. Compounds are dissolved in DMSO to concentrations near 1 mM, and diluted into culture media to a final concentration near 4 μM (final 0.4% DMSO). Compounds were diluted serially and applied to cells in multi-well plates 48 h after seeding. Incubation was continued in 5% CO2 at 37° C. for 24 h. Aliquots were removed and assayed for Aβ40 content using a sandwich ELISA (BioSource International). Amount of Aβ40 over the range of concentration of compounds, relative to control incubations, were fit to a 4-parameter IC50 model.

[2] = biological target: T2, CYP3A4 (Homo sapiens, UniProt P08684); assay: Determination of CYP3A4 inhibition (midazolam metabolism); format: in vitro ADME; conditions: human liver microsomes, midazolam substrate
T2 construct: with human liver microsomes (HLM) at a final protein concentration of 0.1 mg/mL protein; from tissue; host or cells: human liver microsomes
T2 sequence (P08684 whole entry): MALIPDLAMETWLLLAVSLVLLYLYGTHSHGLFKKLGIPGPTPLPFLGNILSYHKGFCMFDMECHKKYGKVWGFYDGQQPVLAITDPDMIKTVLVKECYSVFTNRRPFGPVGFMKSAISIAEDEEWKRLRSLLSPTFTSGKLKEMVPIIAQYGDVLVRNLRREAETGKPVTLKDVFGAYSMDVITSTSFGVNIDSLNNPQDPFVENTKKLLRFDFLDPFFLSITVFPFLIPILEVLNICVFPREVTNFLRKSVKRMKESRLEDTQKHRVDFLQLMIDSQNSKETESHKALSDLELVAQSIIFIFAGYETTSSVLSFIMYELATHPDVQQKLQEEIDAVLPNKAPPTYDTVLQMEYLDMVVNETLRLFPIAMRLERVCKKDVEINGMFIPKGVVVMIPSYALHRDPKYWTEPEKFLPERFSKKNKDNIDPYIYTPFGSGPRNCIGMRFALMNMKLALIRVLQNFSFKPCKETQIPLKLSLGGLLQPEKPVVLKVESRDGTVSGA
Procedure: To evaluate the drug-drug interaction potential for compounds, the potency to inhibit the major metabolic cytochrome CYP450 isoform 3A4 was assessed. The inhibition constant Ki was determined for inhibition of the metabolism of midazolam, a CYP3A4 substrate.
CYP3A4 Ki assays were performed following a recently published protocol with slight modifications (Di, L., Kerns, E. H., Li, S. Q., and Carter, G. T. (2007) Comparison of cytochrome P450 inhibition assays for drug discovery using human liver microsomes with LC-MS, rhCYP450 isozymes with fluorescence, and double cocktail with LC-MS. International Journal of Pharmaceutics 335: 1-11). The P450 inhibition assay was performed in 96-well plates at 37.2° C. in a shaking incubator. […]
After incubation for the specified time in a humidified shaking incubator, 20 μL of the reaction mixture was removed and the reactions were terminated by adding […] of cold acetonitrile. […] Formation of 1′-hydroxymidazolam was measured by monitoring a specific SRM (342>203) transition for the CYP3A4 metabolite.
Data were expressed as the relative quantity of midazolam metabolite relative to control incubations. Initial velocities were obtained by multiplying the relative quantity by the initial substrate concentration and dividing by the incubation duration. […]

[3] = Hepatic intrinsic clearance in liver microsomes; format: in vitro ADME; conditions: pH 7.4; human liver microsomes, LC/MS/MS; read-out: HLM CL
Procedure: To 500 μl of 200 mM Na^+ K^+ phosphate buffer (pH 7.4), 100 μl of 1 mM EDTA solution was added followed by 100 μl of 2 mg protein/ml human liver microsomes. A 10 μl aliquot of test compound (20 mM stock in 50% acetonitrile) was diluted further with 40 μl of H2O (total assay volume 750 μl. Assay mixture is incubated for 5 minutes at 37° C. The assay was initiated by addition of 250 μl of 4 mM NADPH solution. Incubation was continued at 37° C. Separate reaction mixtures were prepared for 0, 5, 10, 20, and 30 min durations. Individual reactions were halted by addition of 150 μl of 100% acetonitrile. Internal standard (10 μl of 100 ng/ml diazepam solution) was added. Concentration of the test compound in each separate reaction was measured using LC/MS/MS and a standard curve for the test compound according to standard procedures.
The hepatic intrinsic clearance in liver microsome was determined by the following procedure described by Davies and Morris (Davies, B. and Morris, T. (19930) Physiological parameters in laboratory animals and humans. Pharm Res. 10:1093-1095) detailing the relationship of in vitro clearance to physiological parameters in animals and human subjects.
The amount of compound remaining at each time point was expressed relative to the amount present in the initial (0 min) incubation. The relationship of relative amount vs. time was used to determine the half life of the compound in the microsome assay. The concentration independent rate constant, k1, was determined from rectangular hyperbolic fit:
% remaining=100*(e^−k^1^T)
where T is time (in minutes), from the relationship of relative amount vs. time. Alternatively, k1 was determined from a transform of the equation, where
Conversion to in vivo clearance was obtained from the relation (Davies and Morris, 1993):
where v=velocity of metabolism, [S] is the concentration of the compound, and volumes are expressed in mL.

[4] = biological target: memapsin 2 (Homo sapiens, UniProt P56817); assay: Inhibition of memapsin 2 beta-secretase activity (fluorogenic substrate FS-2); format: biochemical; conditions: pH 4, 37° C., read-out: M2 Ki
Sequence of memapsin 2 (Homo sapiens, UniProt P56817) (P56817 46-501): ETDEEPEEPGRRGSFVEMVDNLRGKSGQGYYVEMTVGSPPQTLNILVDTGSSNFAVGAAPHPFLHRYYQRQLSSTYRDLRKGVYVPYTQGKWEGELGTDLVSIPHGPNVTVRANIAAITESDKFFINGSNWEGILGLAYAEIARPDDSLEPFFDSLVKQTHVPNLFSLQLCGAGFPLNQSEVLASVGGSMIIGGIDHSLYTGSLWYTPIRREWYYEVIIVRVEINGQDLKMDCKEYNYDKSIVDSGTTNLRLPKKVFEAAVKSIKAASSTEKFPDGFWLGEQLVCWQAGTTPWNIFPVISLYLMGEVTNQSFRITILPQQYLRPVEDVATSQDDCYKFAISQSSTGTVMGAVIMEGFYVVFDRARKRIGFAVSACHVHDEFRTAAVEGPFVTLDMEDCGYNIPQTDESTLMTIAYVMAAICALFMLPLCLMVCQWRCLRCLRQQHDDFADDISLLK
Procedure: Potency of compounds were determined by measurement of their inhibition of memapsin 2 activity toward a fluorescent substrate. Kinetic inhibition experiments were performed using the procedure as described in Ermolieff, et al. (Biochemistry 39:12450-12456 (2000), the teachings of which are incorporated hereby in their entirety). Briefly, assays were performed at pH 4, 37° C., by pre-incubation of memapsin 2 enzyme with compound for 20 minutes. Activity measurements were initiated by addition of a fluorogenic substrate FS-2 (Bachem Americas, Torrance, Calif.) MCA-SEVNLDAEFR-DNP (SEQ ID NO.: 2). The substrate was derived from 10 amino acids of the human amyloid precursor protein (APP), with the Swedish variant amino acids at the beta-secretase cleavage site. The terminal amino acid was modified from arginine to lysine to facilitate derivatization with a functional group for detection by autofluorescence. The amino acid sequence of the “core” peptide of the substrate is SEVNLDAEFK (SEQ ID NO.: 3). The amino terminus was derivatized with (7-methoxycoumarin-4-yl)acetyl (MCA), and the epsilon amine of the lysine side chain of the terminal residue (K in sequence SEVNLDAEFK (SEQ ID NO.: 3)) was derivatized with 2,4-dinitrophenyl (DNP).

[5] = biological target: Cathepsin D (UniProt P07339); assay: Inhibition of cathepsin D activity (MALDI-TOF, substrate peptide); format: biochemical; conditions: substrate peptide NH3-ELDLAVEFWHDR-CO2, pH 4.1, 37 degrees C.; read-out: CD Ki

Q: For `Cc1csc([C@H]2CCCN2C(=O)c2cc(C(=O)N[C@@H](Cc3ccccc3)[C@H](O)[C@H]3CCCN3)cc(N3CCCCS3(=O)=O)c2)n1` [1-78, N-((1R,2S)-1-hydroxy-3-phenyl-1-((R)-pyrrolidin-2-yl)propan-2-yl)-3-((R)-2-(4-methylthiazol-2-yl)pyrrolidine-1-carbonyl)-5-(thiazinanyl-S,S-dioxide)benzamide], which IC50 [1] is on record?
A: The IC50 was < 500 nM.

Q: What about the Ki [2] of the same compound?
A: The Ki was > 10000 nM.

Q: What about the CLint scaled at 200 μM [3] of the same compound?
A: Its CLint scaled at 200 μM is < 400 mL/min/kg.

Q: Which results are given for `Cc1csc([C@H]2CCCN2C(=O)c2cc(C(=O)N[C@@H](Cc3ccccc3)[C@H](O)[C@H]3CCCN3)cc(N3CCCS3(=O)=O)c2)n1` [1-89, N-((1R,2S)-1-hydroxy-3-phenyl-1-((R)-pyrrolidin-2-yl)propan-2-yl)-3-((R)-2-(4-methylthiazol-2-yl)pyrrolidine-1-carbonyl)-5-([1,2]thiazolidyl-S,S-dioxide)benzamide]?
A: Ki [4]: < 250 nM; IC50 [1]: < 500 nM; Ki [5]: > 500 nM; CLint scaled at 200 μM [3]: < 400 mL/min/kg

Q: Which Ki [4] does the source give for `Cc1csc([C@H]2CCCN2C(=O)c2cc(C(=O)N[C@@H](Cc3cccc(F)c3)[C@H](O)[C@H]3CCCN3)cc(N3CCCS3(=O)=O)c2)n1` [1-91, N-((1R,2S)-1-hydroxy-3-(5-fluorophenyl)-1-((R)-pyrrolidin-2-yl)propan-2-yl)-3-((R)-2-(4-methylthiazol-2-yl)pyrrolidine-1-carbonyl)-5-([1,2]thiazolidyl-S,S-dioxide)benzamide] here?
A: Its Ki is < 250 nM.

Q: What about the IC50 [1] of the same compound?
A: The IC50 was 500 to 1000 nM.

Q: And the Ki [5]?
A: The Ki was > 500 nM.

Q: And the CLint scaled at 200 μM [3]?
A: Its CLint scaled at 200 μM is < 400 mL/min/kg.

Q: With `Cc1csc([C@H]2CCCN2C(=O)c2cc(C(=O)N[C@@H](Cc3cc(F)cc(F)c3)[C@H](O)[C@H]3CCCN3)cc(N3CCCS3(=O)=O)c2)n1` [1-90, N-((1R,2S)-1-hydroxy-3-(3,5-difluorophenyl)-1-((R)-pyrrolidin-2-yl)propan-2-yl)-3-((R)-2-(4-methylthiazol-2-yl)pyrrolidine-1-carbonyl)-5-([1,2]thiazolidyl-S,S-dioxide)benzamide] as the compound, how does the Ki [4] read?
A: The Ki was < 250 nM.

Q: And the IC50 [1]?
A: Its IC50 is < 500 nM.

Q: What about the Ki [5] of the same compound?
A: The Ki was > 500 nM.

Q: What about the CLint scaled at 200 μM [3] of the same compound?
A: The CLint scaled at 200 μM was < 400 mL/min/kg.

Q: Which results are given for `Cc1csc([C@H]2CCCN2C(=O)c2cc(C(=O)N[C@@H](Cc3cc(F)cc(F)c3)[C@H](O)[C@H]3CCCN3)cc(N3CCCCS3(=O)=O)c2)n1` [1-87, N-((1R,2S)-1-hydroxy-3-(3,5-difluorophenyl)-1-((R)-pyrrolidin-2-yl)propan-2-yl)-3-((R)-2-(4-methylthiazol-2-yl)pyrrolidine-1-carbonyl)-5-(thiazinanyl-S,S-dioxide)benzamide]?
A: Ki [4]: < 250 nM; IC50 [1]: < 500 nM; Ki [5]: > 500 nM; Ki [2]: > 10000 nM; CLint scaled at 200 μM [3]: < 400 mL/min/kg
